ChEMBL document CHEMBL4732192, “Discovery and optimization of a novel CNS penetrant series of mGlu PAMs based on a 1,4-thiazepane core with in vivo efficacy in a preclinical Parkinsonian model” (Bioorg Med Chem Lett, 2021)
Converted amounts (≈) assume the structure as drawn.

Key:
[1] = Kinetic solubility of compound; assay type: physicochemical; settings: read-out: Kinetic_solubility
[2] = target: Metabotropic glutamate receptor 4 (Rattus norvegicus, UniProt P31423); experiment: Positive allosteric modulation of rat mGlu4 receptor expressed in HEK293 cells co- expressing GIRK channel by thallium mobilization assay; assay type: cell-based
[3] = target: Metabotropic glutamate receptor 4 (Rattus norvegicus) (UniProt P31423); experiment: Positive allosteric modulation of rat mGlu4 receptor expressed in HEK293 cells co- expressing GIRK channel by thallium mobilization assay relative to control; assay type: cell-based
[4] = Protein binding in rat plasma assessed as unbound fraction; assay type: ADME, cell-free
[5] = Protein binding in human plasma assessed as unbound fraction; assay type: ADME, cell-free
[6] = Protein binding in rat brain assessed as unbound fraction; assay type: ADME, tissue-based
[7] = Ratio of drug level in rat brain to plasma assessed as permeability coefficient at 0.2 mg/kg, iv; assay type: ADME, organism-based
[8] = Ratio of drug level in rat brain to plasma assessed as unbound permeability coefficient at 0.2 mg/kg, iv; assay type: ADME, organism-based; settings: read-out: K(p,uu,brain)
[9] = target: Metabotropic glutamate receptor 1 (Rattus norvegicus, UniProt P23385); experiment: Displacement of [3H]quisqualate from mGluR1 from rat brain incubated for 60 mins by radiometric scintillation counting analysis; assay type: tissue-based
[10] = target: Metabotropic glutamate receptor 2 (Homo sapiens, UniProt Q14416); experiment: Displacement of [3H]LY341495 from full length human recombinant mGluR2 expressed in Chem-1 cells incubated for 60 mins by radiometric scintillation counting analysis; assay type: cell-based
[11] = target: Metabotropic glutamate receptor 3 (Homo sapiens, UniProt Q14832); experiment: Binding affinity to mGlu3 (unknown origin)
[12] = target: Metabotropic glutamate receptor 5 (Homo sapiens, UniProt P41594); experiment: Binding affinity to mGlu5 (unknown origin)
[13] = target: Metabotropic glutamate receptor 7 (Homo sapiens, UniProt Q14831); experiment: Binding affinity to mGlu7 (unknown origin)
Rattus norvegicus [14] = experiment: Reversal of haloperidol-induced catalepsy in Sprague-Dawley rat assessed as reduction in catalepsy at 3 mg/kg, ip and measured after 15 mins relative to untreated control; assay type: functional; settings: 0.25 h
Rattus norvegicus [15] = experiment: Reversal of haloperidol-induced catalepsy in Sprague-Dawley rat assessed as reduction in catalepsy at 10 mg/kg, ip and measured after 15 mins relative to untreated control; assay type: functional; settings: 0.25 h
Rattus norvegicus [16] = experiment: Reversal of haloperidol-induced catalepsy in Sprague-Dawley rat assessed as reduction in catalepsy at 30 mg/kg, ip and measured after 15 mins relative to untreated control; assay type: functional; settings: 0.25 h
Rattus norvegicus [17] = experiment: Reversal of haloperidol-induced catalepsy in Sprague-Dawley rat assessed as latency time for withdrawl at 3 mg/kg, ip and measured after 15 mins (reference value: 49.8 sec); assay type: functional; settings: 0.25 h
Rattus norvegicus [18] = experiment: Reversal of haloperidol-induced catalepsy in Sprague-Dawley rat assessed as latency time for withdrawl at 10 mg/kg, ip and measured after 15 mins (reference value: 49.8 sec); assay type: functional; settings: 0.25 h
Rattus norvegicus [19] = experiment: Reversal of haloperidol-induced catalepsy in Sprague-Dawley rat assessed as latency time for withdrawl at 30 mg/kg, ip and measured after 15 mins (reference value: 49.8 sec); assay type: functional; settings: 0.25 h
Rattus norvegicus [20] = experiment: Reversal of haloperidol-induced catalepsy in Sprague-Dawley rat administered intraperitoneally and measured after 15 mins; assay type: functional, organism-based; settings: dose 3-30 mg/kg
Rattus norvegicus [21] = experiment: Reversal of haloperidol-induced catalepsy in ip dosed Sprague-Dawley rat assessed as reduction in catalepsy measured after 15 mins relative to untreated control; assay type: functional; settings: 0.25 h
Rattus norvegicus [22] = experiment: Reversal of haloperidol-induced catalepsy in ip dosed Sprague-Dawley rat assessed as latency time for withdrawl measured after 15 mins (reference value: 49.8 sec); assay type: functional; settings: 0.25 h
[23] = filed as positive allosteric modulator

Chain of Metabotropic glutamate receptor 4 (Rattus norvegicus) (P31423 whole entry): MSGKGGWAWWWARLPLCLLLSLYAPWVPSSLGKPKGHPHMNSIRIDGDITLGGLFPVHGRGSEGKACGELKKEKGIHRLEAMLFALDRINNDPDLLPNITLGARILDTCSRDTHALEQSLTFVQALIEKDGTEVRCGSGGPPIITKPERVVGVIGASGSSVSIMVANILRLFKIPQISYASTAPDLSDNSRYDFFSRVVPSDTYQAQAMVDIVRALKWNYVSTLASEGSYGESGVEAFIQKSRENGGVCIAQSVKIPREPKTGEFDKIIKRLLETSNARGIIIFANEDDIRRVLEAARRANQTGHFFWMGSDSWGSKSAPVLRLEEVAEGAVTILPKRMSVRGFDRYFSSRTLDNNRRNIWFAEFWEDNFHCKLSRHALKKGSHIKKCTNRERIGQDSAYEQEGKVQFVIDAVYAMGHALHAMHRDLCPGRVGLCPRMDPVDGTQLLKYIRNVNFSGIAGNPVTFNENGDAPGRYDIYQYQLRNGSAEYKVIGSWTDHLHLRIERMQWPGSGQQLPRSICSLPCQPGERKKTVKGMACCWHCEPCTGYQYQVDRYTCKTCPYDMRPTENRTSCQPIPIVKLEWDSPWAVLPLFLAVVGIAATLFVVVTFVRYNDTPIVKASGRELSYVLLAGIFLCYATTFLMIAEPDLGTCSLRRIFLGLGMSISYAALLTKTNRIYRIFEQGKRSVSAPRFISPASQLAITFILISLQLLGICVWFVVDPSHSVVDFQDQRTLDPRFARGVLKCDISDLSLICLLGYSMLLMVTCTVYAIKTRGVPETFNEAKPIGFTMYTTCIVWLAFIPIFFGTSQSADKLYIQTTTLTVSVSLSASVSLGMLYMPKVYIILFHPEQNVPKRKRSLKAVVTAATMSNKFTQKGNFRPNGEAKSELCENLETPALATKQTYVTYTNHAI
Chain of Metabotropic glutamate receptor 4 (P31423 whole entry): as above
Chain of Metabotropic glutamate receptor 2 (Q14416 whole entry): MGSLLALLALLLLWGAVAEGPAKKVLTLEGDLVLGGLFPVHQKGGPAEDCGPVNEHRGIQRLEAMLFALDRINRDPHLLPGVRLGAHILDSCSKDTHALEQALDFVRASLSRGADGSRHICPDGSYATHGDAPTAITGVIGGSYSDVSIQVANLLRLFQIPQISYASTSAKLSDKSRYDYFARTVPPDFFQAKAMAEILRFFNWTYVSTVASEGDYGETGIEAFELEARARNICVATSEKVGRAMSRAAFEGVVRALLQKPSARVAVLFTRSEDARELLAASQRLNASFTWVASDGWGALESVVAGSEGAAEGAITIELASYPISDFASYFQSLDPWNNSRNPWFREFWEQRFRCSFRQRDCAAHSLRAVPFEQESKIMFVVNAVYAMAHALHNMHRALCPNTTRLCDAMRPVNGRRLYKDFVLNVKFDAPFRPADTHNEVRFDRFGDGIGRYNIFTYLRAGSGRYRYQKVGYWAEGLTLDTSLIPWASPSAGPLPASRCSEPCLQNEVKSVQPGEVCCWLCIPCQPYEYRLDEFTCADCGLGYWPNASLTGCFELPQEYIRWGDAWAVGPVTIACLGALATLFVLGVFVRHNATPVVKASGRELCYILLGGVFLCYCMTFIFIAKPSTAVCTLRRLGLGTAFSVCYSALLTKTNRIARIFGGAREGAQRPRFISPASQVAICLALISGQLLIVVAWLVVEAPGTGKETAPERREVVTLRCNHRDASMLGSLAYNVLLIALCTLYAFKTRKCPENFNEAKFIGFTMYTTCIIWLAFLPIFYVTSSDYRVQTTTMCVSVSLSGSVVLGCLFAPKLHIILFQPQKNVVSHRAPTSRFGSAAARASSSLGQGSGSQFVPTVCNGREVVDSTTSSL
Chain of Metabotropic glutamate receptor 3 (Q14832 whole entry): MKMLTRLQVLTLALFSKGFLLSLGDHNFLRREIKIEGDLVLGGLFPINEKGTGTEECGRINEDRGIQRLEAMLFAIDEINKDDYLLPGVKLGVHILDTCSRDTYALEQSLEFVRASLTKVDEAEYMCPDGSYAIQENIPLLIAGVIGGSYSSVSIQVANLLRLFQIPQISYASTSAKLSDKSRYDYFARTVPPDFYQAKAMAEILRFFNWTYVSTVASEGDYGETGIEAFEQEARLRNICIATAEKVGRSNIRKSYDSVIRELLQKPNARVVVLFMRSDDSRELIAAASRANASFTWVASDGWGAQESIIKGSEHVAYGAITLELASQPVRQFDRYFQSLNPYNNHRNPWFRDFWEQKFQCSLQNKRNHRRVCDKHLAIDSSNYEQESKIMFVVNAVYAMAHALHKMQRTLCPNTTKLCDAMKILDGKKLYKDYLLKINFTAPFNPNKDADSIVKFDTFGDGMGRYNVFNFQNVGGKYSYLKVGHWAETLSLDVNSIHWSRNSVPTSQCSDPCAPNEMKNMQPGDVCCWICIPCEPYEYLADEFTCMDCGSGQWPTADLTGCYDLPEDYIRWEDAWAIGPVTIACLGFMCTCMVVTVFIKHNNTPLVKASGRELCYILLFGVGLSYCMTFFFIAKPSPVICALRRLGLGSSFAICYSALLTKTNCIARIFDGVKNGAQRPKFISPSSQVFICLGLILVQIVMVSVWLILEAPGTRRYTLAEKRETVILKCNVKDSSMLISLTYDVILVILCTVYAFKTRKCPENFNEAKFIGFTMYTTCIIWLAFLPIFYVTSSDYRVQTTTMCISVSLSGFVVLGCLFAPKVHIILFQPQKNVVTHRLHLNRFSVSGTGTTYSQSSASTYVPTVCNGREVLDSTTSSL
Chain of Metabotropic glutamate receptor 7 (Q14831 whole entry): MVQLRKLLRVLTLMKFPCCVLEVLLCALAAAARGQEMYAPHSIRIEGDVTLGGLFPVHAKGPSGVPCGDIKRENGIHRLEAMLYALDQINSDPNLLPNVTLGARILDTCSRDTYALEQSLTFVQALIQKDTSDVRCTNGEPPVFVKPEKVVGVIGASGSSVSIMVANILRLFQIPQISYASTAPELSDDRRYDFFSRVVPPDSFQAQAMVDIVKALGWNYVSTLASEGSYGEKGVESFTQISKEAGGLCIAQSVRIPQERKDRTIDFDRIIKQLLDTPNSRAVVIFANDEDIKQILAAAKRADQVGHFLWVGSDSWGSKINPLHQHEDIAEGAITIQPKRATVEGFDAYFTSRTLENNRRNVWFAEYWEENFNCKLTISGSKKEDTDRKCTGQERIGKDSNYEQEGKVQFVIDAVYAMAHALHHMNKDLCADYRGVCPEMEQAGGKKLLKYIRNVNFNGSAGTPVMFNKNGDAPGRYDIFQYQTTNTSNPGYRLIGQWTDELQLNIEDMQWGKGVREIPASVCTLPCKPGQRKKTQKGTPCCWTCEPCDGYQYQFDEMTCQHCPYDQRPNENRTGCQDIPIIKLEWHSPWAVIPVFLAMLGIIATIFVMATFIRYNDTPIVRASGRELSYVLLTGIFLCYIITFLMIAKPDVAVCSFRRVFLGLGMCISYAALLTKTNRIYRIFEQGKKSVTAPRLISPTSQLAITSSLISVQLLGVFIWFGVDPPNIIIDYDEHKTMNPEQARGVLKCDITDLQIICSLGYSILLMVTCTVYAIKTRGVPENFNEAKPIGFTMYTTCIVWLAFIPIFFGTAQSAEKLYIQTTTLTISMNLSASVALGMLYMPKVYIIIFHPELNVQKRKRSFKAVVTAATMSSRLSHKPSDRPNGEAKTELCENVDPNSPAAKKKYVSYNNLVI
Chain of Metabotropic glutamate receptor 1 (P23385 whole entry): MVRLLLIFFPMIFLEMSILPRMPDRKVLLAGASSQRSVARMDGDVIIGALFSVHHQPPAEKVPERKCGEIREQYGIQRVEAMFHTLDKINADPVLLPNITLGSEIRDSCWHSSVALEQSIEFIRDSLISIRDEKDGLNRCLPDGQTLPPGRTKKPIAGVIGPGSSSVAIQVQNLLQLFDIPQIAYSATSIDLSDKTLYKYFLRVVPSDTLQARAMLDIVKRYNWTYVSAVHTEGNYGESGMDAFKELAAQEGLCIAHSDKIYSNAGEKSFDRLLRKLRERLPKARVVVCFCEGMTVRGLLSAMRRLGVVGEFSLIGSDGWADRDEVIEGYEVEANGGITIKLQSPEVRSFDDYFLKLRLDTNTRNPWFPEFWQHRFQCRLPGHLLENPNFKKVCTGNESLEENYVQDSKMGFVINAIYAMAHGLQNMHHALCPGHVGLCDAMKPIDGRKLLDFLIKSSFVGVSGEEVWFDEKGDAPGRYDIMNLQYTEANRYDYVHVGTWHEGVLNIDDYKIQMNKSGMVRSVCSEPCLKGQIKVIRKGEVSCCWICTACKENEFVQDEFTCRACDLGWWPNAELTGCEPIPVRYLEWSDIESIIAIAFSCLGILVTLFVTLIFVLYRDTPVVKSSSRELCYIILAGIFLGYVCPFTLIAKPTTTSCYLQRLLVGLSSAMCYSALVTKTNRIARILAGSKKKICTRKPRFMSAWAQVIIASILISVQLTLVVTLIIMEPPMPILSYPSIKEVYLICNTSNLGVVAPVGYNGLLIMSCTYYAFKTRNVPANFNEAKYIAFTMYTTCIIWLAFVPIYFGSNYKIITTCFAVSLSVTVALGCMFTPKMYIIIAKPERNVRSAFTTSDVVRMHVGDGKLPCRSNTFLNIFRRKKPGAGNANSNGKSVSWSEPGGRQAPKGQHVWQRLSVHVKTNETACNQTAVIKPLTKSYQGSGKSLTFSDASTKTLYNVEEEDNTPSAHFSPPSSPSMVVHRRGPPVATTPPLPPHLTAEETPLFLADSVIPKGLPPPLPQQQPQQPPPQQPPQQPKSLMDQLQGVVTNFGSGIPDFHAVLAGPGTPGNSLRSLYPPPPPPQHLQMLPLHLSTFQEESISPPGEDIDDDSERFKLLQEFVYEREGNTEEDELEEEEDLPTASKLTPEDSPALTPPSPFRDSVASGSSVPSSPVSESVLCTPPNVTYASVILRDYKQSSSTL

SMILES	EC50 [2] [nM]	%max [3, 23] [%]	also measured
O=C(NC1CC(F)(F)C1)c1nsc2cc(Nc3n[nH]c4cccnc34)ccc12			solubility kinetic [1]: 0.9 µM (≈ 0.36 µg/mL)
O=C1CCSC[C@@H](C(=O)Nc2cc(Br)cc(Br)c2)N1	35	97	fraction unbound [4]: 0.011; fraction unbound [5]: 0.007; fraction unbound [6]: 0.006; Kp [7]: 0.19; Kp uu [8]: 0.1
O=C1CCSC[C@@H](C(=O)Nc2cc(Cl)cc(Cl)c2)N1	273	88	
O=C1CCSC[C@@H](C(=O)Nc2cc(C(F)(F)F)cc(C(F)(F)F)c2)N1	950	102	
O=C1CCSC[C@@H](C(=O)Nc2cccc(Br)c2)N1	6200	98	
Cc1cc(C)cc(NC(=O)[C@@H]2CSCCC(=O)N2)c1	> 10000		%max [3]: < 30%
O=C1CCSC[C@@H](C(=O)Nc2cc(F)cc(F)c2)N1	8900	102	
O=C1CCSC[C@@H](C(=O)Nc2cc(F)cc(I)c2)N1	558	102	
O=C1CCSC[C@H](C(=O)Nc2cc(Br)cc(Br)c2)N1	76	104	
O=C1CCSC[C@H](C(=O)Nc2cccc(Br)c2)N1	> 30000		
O=C1CCSC[C@@H](C(=O)Nc2cccc(Cl)c2)N1	148	120	fraction unbound [4]: 0.02; fraction unbound [5]: 0.03; fraction unbound [6]: 0.01
O=C1CCSC[C@@H](C(=O)Nc2cc(F)cc(Br)c2)N1	351	101	
O=C1CCSC[C@@H](C(=O)Nc2cc(Cl)cc(Br)c2)N1	33	108	fraction unbound [4]: 0.018; fraction unbound [5]: 0.011; fraction unbound [6]: 0.028; Kp [7]: 0.45; Kp uu [8]: 0.7; IC50 [9]: > 10000 nM; IC50 [10]: > 10000 nM; IC50 [11]: > 10000 nM; IC50 [12]: > 10000 nM; IC50 [13]: > 10000 nM; solubility kinetic [1]: 6.2 µM (≈ 2.25 µg/mL); inhibition in vivo at 3 mg/kg (Rattus norvegicus [14]): 26.5%; inhibition in vivo at 10 mg/kg (Rattus norvegicus [15]): 42.6%; inhibition in vivo at 30 mg/kg (Rattus norvegicus [16]): 55.4%; Time (Rattus norvegicus [17]): 36.6 s; Time (Rattus norvegicus [18]): 28.6 s; Time (Rattus norvegicus [19]): 22.2 s; Activity (Rattus norvegicus [20]): Dose-dependent effect
Cc1cc(Cl)cc(NC(=O)[C@@H]2CSCCC(=O)N2)c1	1090	87	
O=C1CCSC[C@@H](C(=O)Nc2cc(F)cc(Cl)c2)N1	278	112	
Fc1ccc(Nc2n[nH]c3cccnc23)cc1Cl			inhibition (INH) (Rattus norvegicus [21]): 64%; Time (Rattus norvegicus [22]): 17.9 s
O=C1CCSC[C@H](C(=O)Nc2cc(Cl)cc(Br)c2)N1	64	98	
O=C1CCSC[C@@H](C(=O)Nc2cc(Br)cc(I)c2)N1	115	101	
